The structures appear in SMILES notation. Where two headings read alike, the source gives them in different places.

These results are taken from PMC12163827, “Identification of Novel Leishmania donovani Nucleoside Hydrolase Inhibitors from Banisteriopsis laevifolia Using Affinity Selection-Mass Spectrometry” (ACS Omega, 2025).

Holding throughout (type): biochemical
The target in assay [1] is T1, Leishmania donovani nucleoside hydrolase (LdNH) (Leishmania donovani, UniProt Q8WQX2).
T1 construct: gene iunh
T1 sequence (Q8WQX2 1-314): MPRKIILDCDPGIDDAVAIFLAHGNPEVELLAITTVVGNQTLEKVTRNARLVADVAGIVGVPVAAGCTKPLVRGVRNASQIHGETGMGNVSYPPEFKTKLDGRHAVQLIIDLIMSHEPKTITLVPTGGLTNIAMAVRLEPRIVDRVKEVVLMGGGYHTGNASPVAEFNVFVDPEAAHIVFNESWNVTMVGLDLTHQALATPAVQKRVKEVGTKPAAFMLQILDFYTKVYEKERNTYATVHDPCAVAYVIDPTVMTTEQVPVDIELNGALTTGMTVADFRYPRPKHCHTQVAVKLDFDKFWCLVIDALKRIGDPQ
Put plainly: HPLC-DAD inosine hydrolysis assay with immobilized purified LdNH plus […] Triton X-100; also AS-MS (affinity ratio […]).

The target in assay [2] is T1, Leishmania donovani nucleoside hydrolase (LdNH). The assay is described as above. This is another data set of the same source.
For assay [3] the target is unchanged. Put plainly: HPLC-DAD inosine hydrolysis assay with immobilized LdNH, single concentration […] with Triton X-100; also AS-MS (affinity ratio […]). Conditions: read-out: inhibition at 100 μmol/L (with Triton X-100) (%).
The target is the same in assay [4]. The assay is described as above. Conditions: read-out: inhibition at 100 μmol/L (with Triton X-100) (%). This is another data set of the same source.

By IC50 is commonly meant the point on the concentration scale where inhibition reaches its midpoint. Take `O=c1c(O[C@@H]2O[C@H](CO)[C@@H](O)[C@H](O)[C@H]2O)c(-c2ccc(O)cc2)oc2cc(O)cc(O)c12` [astragalin]: in assay [1], the IC50 turned out to be 41.6 ± 8.9 µM.
Take `O=c1c(O[C@@H]2O[C@H](CO)[C@@H](O)[C@H](O)[C@H]2O)c(-c2ccc(O)c(O)c2)oc2cc(O)cc(O)c12` [isoquercetin]: the IC50 in assay [2] stood at 40.2 ± 16.6 µM.
For the molecule `O=c1cc(-c2ccc(O)c(O)c2)oc2c([C@@H]3O[C@H](CO)[C@@H](O)[C@H](O)[C@H]3O)c(O)cc(O)c12` [orientin], in assay [3], the inhibition at 100 µM stood at 30.4%.
Turning to `C[C@@H]1O[C@@H](OC[C@H]2O[C@@H](Oc3c(-c4ccc(O)c(O)c4)oc4cc(O)cc(O)c4c3=O)[C@H](O)[C@@H](O)[C@@H]2O)[C@H](O)[C@H](O)[C@H]1O` [rutin], the inhibition at 100 µM in assay [4] came out at 61.2%.
